We go through five compounds from publication PMC1874184 (Environmental Health Perspectives, 2005).

In data set [1] the test system is aquatic organisms (vertebrates and invertebrates). The settings on record: ref Hirano et al. 2004, Ike et al. 2002; cited from earlier work.
Data set [2] addresses ER-like binding site (specific [3H]-E2 binding). Description: Competitive displacement of specific [3H]-E2 binding in gonad cytosolic extracts. Conditions: for IC50: read-out: IC50, displacement of specific [3H]-E2 binding, 24 nM [3H]-E2, 18 hr incubation, n = 3; for Displacement activity / affinity for ER-like binding site (in words): 24 nM [3H]-E2.
Data set [3] deals with vertebrate ER. Conditions: ref Bolger et al. 1998; cited from earlier work.
For data set [4], the system named is Potamopyrgus antipodarum. The settings on record: exposure via sediments; ref Duft et al. (2003); cited from earlier work.
Data set [5] concerns Caenorhabditis elegans. Conditions: ref Tominaga et al. (2003); cited from earlier work.
Data set [6] relates to Japanese medaka (Oryzias latipes). The settings on record: ref Metcalfe et al. 2001; cited from earlier work.
For data set [7], the system named is swordtails (Xiphophorus helleri). The settings on record: male fish; ref Kwak et al. 2001; cited from earlier work.
The conditions of data set [8]: ref Heemken et al. 2001; Staples et al. 1998; cited from earlier work.
Data set [9] relates to freshwater sponges (Heteromyenia sp.). The settings on record: ref Hill et al. (2002); cited from earlier work.
In data set [10] the test system is Marisa cornuarietis. The settings on record: ref Oehlmann et al. 2000; cited from earlier work.
The test system of data set [11] is Marisa cornuarietis. Description: Exposure series I: 6-month semistatic exposure of sexually mature snails at 22°C. Format: in vivo.
Data set [12] has as its system Marisa cornuarietis. Type of data set: in vivo. The settings on record: for EC10 (95% confidence intervals), clutch production / EC10 (95% confidence intervals), egg production / NOEC, clutch production / NOEC, egg production: entire duration; for Oviduct malformations under co-exposure with BPA: 5 μg BPA/L plus 3 μg ICI 182,780/L or 10 μg tamoxifen/L.
For data set [13] the following is noted: cited from earlier work.
The subject of data set [14] is C. riparius. Conditions: freshly emerged midges, 1 to 3,000 μg/L; ref Hahn et al. (2002); cited from earlier work.
Data set [15] concerns Acartia tonsa. The settings on record: ref Andersen et al. (1999); cited from earlier work.
The mark [16] stands for this setting: prespawning period (days 0–65), 22°C, based on measured BPA concentrations.
Where [17] appears, read: prespawning period, 22°C, measured concentrations.
[18] abbreviates: 20°C, measured BPA concentrations.
Where [19] appears, read: 27°C, measured BPA concentrations.

Converted amounts (≈) assume the structure as drawn. “Also recorded” adds a separate entry of the source. Like-named read-outs stand apart in the source and are kept apart here.

As a reminder, the IC50 is the concentration at which inhibition is half-maximal. In general, LC50 refers to the concentration lethal to half of the exposed cells or organisms. For the compound `CC(C)(c1ccc(O)cc1)c1ccc(O)cc1` [BPA, 4,4′-isopropylidine diphenol], the “96-hr LC50 (median lethal concentration)” value in [1] was 1000 to 20000 ng/mL. Further, the IC50 in data set [2] is 24.8 µM. Also, the “Affinity to the vertebrate ER (in words)” value in [3] was “weak affinity”. Besides, the “EC10, increase of embryo numbers in the brood pouch (superfemale response)” value in data set [4] is 0.22 μg BPA/kg. The LC50 in data set [5] was above 100 µM. For the same compound, the “Concentration inducing ovotestes (as low as)” value in data set [6] is 10 ng/mL. Besides, the “Concentration range inhibiting development of the sword” value in data set [7] is 0.2 to 20 ng/mL. Moreover, the “log KOW” value in data set [8] is 2.20–3.82. Besides, the “Concentration completely inhibiting germination” value in data set [9] is 80000 ng/mL. Besides, the “Concentration range with significant reductions in growth rates” value in [9] was 160 to 160000 ng/mL. Besides, the “Concentration inducing superfeminization syndrome (as low as)” value in data set [10] was 1 ng/mL. Besides, in [11] (entire experiment, nominal BPA 0.1, 0.5 and 1 μg/L, PC 0.01 μg/L EE2, p < 0.05), the “Cumulative clutch and egg production compared with SC” value is recorded as “significantly more”. Moreover, the “Incidence of superfemales with oviduct malformations” value came out at 1.2% in [11] (nominal 0.05 μg/L BPA, 22°C); 0% in data set [11] (nominal 0.1 μg/L BPA, 22°C); 2.0% in [11] (nominal 0.25 μg/L BPA, 22°C); 3.1% in data set [11] (nominal 0.5 μg/L BPA, 22°C); 3.2% in [11] (nominal 1 μg/L BPA, 22°C); 4.8 in data set [12] (20°C, nominal 0.25 μg/L BPA). Further, the “Incidence of superfemales with oviduct malformations” value in data set [12] (20°C, nominal 0.5 μg/L BPA) amounted to 8.0; in data set [12] (20°C, nominal 1 μg/L BPA) it was 14.8; in data set [12] (20°C, nominal 5 μg/L BPA), 11.5. The “EC10 (95% confidence intervals), clutch production” value is on record as 14.6 (13.8–15.4) ng/L in data set [11] (setting [16]), 18.0 (6.20–52.4) ng/L in data set [12] (setting [18]) and 2090 (796–5,460) ng/L in [12] (setting [19]). The “EC10 (95% confidence intervals), egg production” value in data set [11] (setting [16]) was 13.9 (12.8–15.0) ng/L; in data set [12] (setting [18]) it was 14.8 (6.07–36.2) ng/L; in data set [12] (setting [19]), 998 (161–6,200) ng/L. In addition, the “LOEC, clutch production” value in [11] (setting [17]) amounted to 48.3 ng/L; in [12] (20°C, measured concentrations), 106 ng/L. Also, the “LOEC, egg production” value was 48.3 ng/L in data set [11] (setting [17]); 106 ng/L in data set [12] (20°C, measured concentrations); 436 ng/L in data set [12] (27°C, measured concentrations). Further, the “NOEC, clutch production” value in data set [11] (setting [17]) is on record as 7.9 ng/L; in data set [12] (20°C, measured concentrations) it was below 106 ng/L; in data set [12] (27°C, measured concentrations), at least 1990 ng/L. The “NOEC, egg production” value in data set [11] (setting [17]) is on record as 7.9 ng/L; in data set [12] (20°C, measured concentrations) it was below 106 ng/L; in data set [12] (27°C, measured concentrations), 205 ng/L. The Imposex development result in data set [11] (sexually mature snails, 22°C, ANOVA and Weir test p > 0.2) is recorded as “did not induce imposex development”; in [12] (20°C and 27°C, ANOVA and Weir test p > 0.5), “did not induce imposex development”. Further, in data set [12] (20°C or 27°C, with the exception of penis length at 20°C), the “Size of genital organs (penis pouch, penis sheath, penis) in males” value was “did not affect”. The “Mortality compared to SC” value in data set [12] (20°C, 0.25, 0.5, 1 and 5 μg BPA/L, χ2 test) is “increased significantly”. Besides, the “Clutch and egg production compared with SC” value in [12] (20°C, cumulative p < 0.01, per female p < 0.001) is listed as “significantly more”. Moreover, in data set [12] (20°C, p < 0.01), the “Penis length in males” value is reported as “significant decrease; also recorded: concentration-dependent reduction”. In [12] (27°C, groups exposed solely to BPA), the “Clutch production compared with control” value is “none of the groups exposed solely to BPA produced significantly more clutches”. In addition, the “EC10, clutch production” value in data set [12] (setting [19]) stood at 2.09 ng/mL (≈ 9.15 nM). Moreover, the “EC10, egg production” value in data set [12] (setting [19]) came to 0.998 ng/mL (≈ 4.37 nM). The “Cumulative egg production compared with SC” value in data set [12] (27°C, only at nominal 1 and 5 μg/L, p < 0.05) is listed as “significant increase”. For the same compound, the “half-life (degradation)” value was 28 days in data set [13] (in sewage treatment plants, ref Howard 1989) and 2.5 to 4 days in data set [13] (in water, ref Dorn et al. 1987). Besides, the “Reduction of yolk protein contents” value in data set [14] is on record as 20–25%. The “Concentration with increase of egg production” value in data set [15] is reported as 20 μg BPA/L.
For `C[C@]12CC[C@@H]3c4ccc(O)cc4CC[C@H]3[C@@H]1CC[C@@H]2O` [E2], the IC50 in data set [2] amounted to 0.753 µM.
With `C[C@]12CC[C@@H]3c4ccc(O)cc4C[C@@H](CCCCCCCCC[S+]([O-])CCCC(F)(F)C(F)(F)F)[C@H]3[C@@H]1CC[C@@H]2O` (stereo partly shown) [ICI, ICI 182,780, reference compound], the “Imposex intensities compared to SC under co-exposure with BPA” value in data set [12] (5 μg BPA/L plus 3 μg ICI 182,780/L, both temperatures, Weir test p < 0.05) is listed as “imposex intensities increased”. In data set [12] (20°C), the “Oviduct malformations under co-exposure with BPA” value is given as “No oviduct malformations”.
Regarding `C[C@]12CC[C@H]3[C@@H](CCC4=CC(=O)CC[C@@]43C)[C@@H]1CC[C@@H]2O` [T, testosterone], the “Displacement activity / affinity for ER-like binding site (in words)” value in [2] was “only weak displacement activity”.
`CC/C(=C(\c1ccccc1)c1ccc(OCCN(C)C)cc1)c1ccccc1` [Tam, tamoxifen, reference compound]: the “Displacement activity / affinity for ER-like binding site (in words)” value in [2] is given as “moderate affinity”. Besides, in data set [12] (20°C), the “Oviduct malformations under co-exposure with BPA” value was “No oviduct malformations”.
